Laboratory results from patent publication US20100316655A1, “COMPOUNDS WITH MDR1-INVERSE ACTIVITY” (priority 2008, published 2010).
pIC50: −log10 of the molar value.

Experiments:
[1] = tested on: KB-3-1 adenocarcinoma cells; experiment: MTT cytotoxicity assay, parental P-gp-negative KB-3-1 cells; format: cell-based, human; conditions: unit inferred
Description: (§1) Exemplary compounds were also tested against the KB-V1 adenocarcinoma cell line that expresses high levels of P-gp (the protein product of MDR1). […] MDR1 selectivity is determined by the ratio of IC50 against KB-3-1 cells divided by its IC50 against KB-V1 cells.
(§2) This example describes evaluation of compounds using the MTT cytotoxicity assay. Cell survival was measured by the MTT (3-(4,5-dimethylthiazol-2-yl)-2,5-diphenyltetrazolium bromide) assay as previously described by Ludwig, J. A. et al. Selective toxicity of NSC73306 in MDR1-positive cells as a new strategy to circumvent multidrug resistance in cancer. […] Briefly, cells were seeded in […] of growth medium at a density of 5000 cells/well in 96-well plates and allowed to establish for 24 hours, at which time serially diluted drugs were added in an additional […] growth medium. Cells were then incubated for 72 hours at 37° C. in humidified 5% CO2, at which time the growth media was drawn, and replaced with MTT in IMDM growth media and incubated for 4 hours. The MTT solution was then drawn from the wells, and […] acidified ethanol solution was added to each well and after 15 minutes absorption at 560 nm was measured.

[2] = tested on: KB-V1 adenocarcinoma cell line; experiment: MTT cytotoxicity assay, P-gp (MDR1) expressing KB-V1 cells; MDR1 selectivity vs KB-3-1; format: cell-based, human; conditions: Table 2; for pIC50: MTT, 72 hours, unit inferred; for MDR1 select.: ratio of IC50 against KB-3-1 divided by IC50 against KB-V1
Description: as §1, §2

Structure (SMILES)	pIC50 ([1]; Table 2, 72 hours)	pIC50 [2]	MDR1 select. [2]	pIC50 ([1]; Homo sapiens, KB 3-1, Table 2, 72 hours)	pIC50 ([2]; Homo sapiens, KB-V1)
O=C1Nc2ccccc2C1=NNC(=S)Nc1ccc(C(F)(F)F)cc1 [Compound M9, 1-Isatin-4-(4′-(trifluoromethyl)phenyl)-3-thiosemicarbazone]	5.07	5.68	4.09	–	–
O=C1Nc2ccccc2C1=NNC(=S)Nc1cccc(Cl)c1 [Compound M7, 1-Isatin-(3′-chlorophenyl)-3-thiosemicarbazone]	5.73	6.19	2.92	–	–
O=C1Nc2ccccc2C1=NNC(=S)NCc1ccccc1 [Compound M6, 1-Isatin-4-benzyl-3-thiosemicarbazone]	4.93	5.12	1.53	–	–
CN(C)c1ccc(NC(=S)NN=C2C(=O)Nc3ccccc32)cc1 [Compound M3, 1-Isatin-4-(4′-(dimethylamino)phenyl)-3-thiosemicarbazone]	5.16	5.65	2.99	–	–
O=C1Nc2ccccc2/C1=N/NC(=S)Nc1c(F)cc(F)cc1F [Compound M13, 1-Isatin-4-(2′,4′,6′-trifluorophenyl)thiosemicarbazone]	–	–	5.27	4.42	5.14
